Measurements as given in ChEMBL document CHEMBL1201862, “PubChem BioAssay data set” (2004).
The source made the active and inactive calls.

Key:
[1] = molecular target: Hepatocyte nuclear factor 4-alpha (Homo sapiens, UniProt P41235); format: functional, cell-based;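 also: biochemical luminescence-based dose-response counterscreen measuring inhibition of HNF4 dimerization, run alongside a screen for blockers of ABHD5–perilipin-5 interaction; split luciferase complementation of HNF4 fusion proteins in cell lysate measuring dimerization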
Sequence of Hepatocyte nuclear factor 4-alpha (P41235 whole entry, the tested form may be a part): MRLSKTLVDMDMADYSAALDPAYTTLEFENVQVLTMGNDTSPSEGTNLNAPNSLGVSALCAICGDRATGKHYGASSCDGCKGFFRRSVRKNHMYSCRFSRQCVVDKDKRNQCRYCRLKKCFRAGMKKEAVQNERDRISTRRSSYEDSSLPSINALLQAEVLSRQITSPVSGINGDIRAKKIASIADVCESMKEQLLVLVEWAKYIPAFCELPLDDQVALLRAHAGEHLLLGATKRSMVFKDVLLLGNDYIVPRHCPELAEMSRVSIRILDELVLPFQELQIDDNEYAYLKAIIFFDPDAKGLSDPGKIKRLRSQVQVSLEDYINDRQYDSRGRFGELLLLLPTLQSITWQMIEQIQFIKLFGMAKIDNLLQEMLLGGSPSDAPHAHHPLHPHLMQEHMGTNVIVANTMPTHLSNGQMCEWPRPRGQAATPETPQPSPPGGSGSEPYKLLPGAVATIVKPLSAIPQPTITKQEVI

[2] = molecular target: Induced myeloid leukemia cell differentiation protein Mcl-1 (Homo sapiens, UniProt Q07820); format: functional
[3] = molecular target: T1, Methionyl-tRNA synthetase, putative (Trypanosoma brucei brucei, UniProt Q38C91); format: functional, Trypanosoma brucei brucei strain 927/4 GUTat10.1
T1 sequence (Q38C91 whole entry): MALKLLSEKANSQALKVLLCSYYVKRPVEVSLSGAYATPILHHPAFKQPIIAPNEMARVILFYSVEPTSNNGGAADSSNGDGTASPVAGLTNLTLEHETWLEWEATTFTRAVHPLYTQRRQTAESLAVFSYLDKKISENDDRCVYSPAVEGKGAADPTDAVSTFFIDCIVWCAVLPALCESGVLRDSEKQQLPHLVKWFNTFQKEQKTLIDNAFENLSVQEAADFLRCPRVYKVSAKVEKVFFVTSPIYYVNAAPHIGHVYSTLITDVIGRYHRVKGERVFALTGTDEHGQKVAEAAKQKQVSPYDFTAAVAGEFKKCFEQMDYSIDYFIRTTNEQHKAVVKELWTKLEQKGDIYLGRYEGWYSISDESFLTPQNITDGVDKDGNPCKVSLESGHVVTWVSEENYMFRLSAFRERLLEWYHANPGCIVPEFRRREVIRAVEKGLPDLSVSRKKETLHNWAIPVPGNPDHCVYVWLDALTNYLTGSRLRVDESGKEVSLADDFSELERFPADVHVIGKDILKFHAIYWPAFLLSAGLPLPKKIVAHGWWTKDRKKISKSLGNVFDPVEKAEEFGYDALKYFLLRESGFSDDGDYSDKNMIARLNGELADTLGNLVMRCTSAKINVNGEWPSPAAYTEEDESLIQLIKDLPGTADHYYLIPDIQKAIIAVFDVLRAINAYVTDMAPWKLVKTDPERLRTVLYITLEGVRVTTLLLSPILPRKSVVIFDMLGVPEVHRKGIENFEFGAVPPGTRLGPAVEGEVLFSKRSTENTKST

[4] = molecular target: T1, Methionyl-tRNA synthetase, putative; format: functional, Trypanosoma brucei brucei strain 927/4 GUTat10.1; remark: listed apart in the source
[5] = Counterscreen for inhibitors of Trypanosoma brucei methionyl tRNA synthetase (MetRS): Luminescence-based cell-based high throughput dose response assay to identify compounds that are cytotoxic to Jurkat human T lymphocyte cells.; format: functional
[6] = molecular target: Potassium voltage-gated channel subfamily KQT member 2 (Rattus norvegicus, UniProt O88943); test: KCNQ2 potassium channel inhibitors, dose response, cell-based, automated electrophysiology, set II, rat KCNQ2 (AID 588637); format: functional
[7] = molecular target: T2, Botulinum neurotoxin type F (Clostridium botulinum, UniProt P30996); test: High-throughput multiplex microsphere dose response for inhibitors of toxin protease, specifically Botulinum neurotoxin light chain F protease, compounds from Cherry Pick 01.; format: functional; settings: read-out: EC50_MICROM
T2 sequence (P30996 1-436 limits assumed): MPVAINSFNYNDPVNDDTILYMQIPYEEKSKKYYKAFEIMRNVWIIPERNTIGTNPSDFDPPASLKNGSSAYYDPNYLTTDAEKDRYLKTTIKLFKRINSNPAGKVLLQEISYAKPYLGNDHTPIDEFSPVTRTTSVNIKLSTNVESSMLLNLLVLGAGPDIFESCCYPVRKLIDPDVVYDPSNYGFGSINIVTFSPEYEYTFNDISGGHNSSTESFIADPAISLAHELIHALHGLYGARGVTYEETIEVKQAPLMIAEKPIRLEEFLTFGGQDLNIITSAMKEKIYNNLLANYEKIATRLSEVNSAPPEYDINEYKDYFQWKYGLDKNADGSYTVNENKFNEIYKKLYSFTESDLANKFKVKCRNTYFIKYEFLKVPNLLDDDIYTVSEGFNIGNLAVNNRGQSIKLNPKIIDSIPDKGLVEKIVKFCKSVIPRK

[8] = molecular target: T2, Botulinum neurotoxin type F; test: High-throughput multiplex microsphere dose response for inhibitors of toxin protease, specifically Botulinum neurotoxin light chain F protease, compounds from Cherry Pick 02.; format: functional; settings: read-out: EC50_MICROM
[9] = molecular target: T3, Heat shock factor protein 1 (Mus musculus, UniProt P38532); test: inhibition of MG132-induced HSE-luciferase signal, confirmation, cell-based, NIH3T3, luminescence, dose retest (AID 2382); format: functional;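 also: NIH3T3 fibroblasts with HSF1-driven luciferase reporter stressed by proteasome inhibitor MG132; luminescence from HSF1-driven luciferase expression after 8 hours of MG132 stress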
T3 sequence (P38532 whole entry): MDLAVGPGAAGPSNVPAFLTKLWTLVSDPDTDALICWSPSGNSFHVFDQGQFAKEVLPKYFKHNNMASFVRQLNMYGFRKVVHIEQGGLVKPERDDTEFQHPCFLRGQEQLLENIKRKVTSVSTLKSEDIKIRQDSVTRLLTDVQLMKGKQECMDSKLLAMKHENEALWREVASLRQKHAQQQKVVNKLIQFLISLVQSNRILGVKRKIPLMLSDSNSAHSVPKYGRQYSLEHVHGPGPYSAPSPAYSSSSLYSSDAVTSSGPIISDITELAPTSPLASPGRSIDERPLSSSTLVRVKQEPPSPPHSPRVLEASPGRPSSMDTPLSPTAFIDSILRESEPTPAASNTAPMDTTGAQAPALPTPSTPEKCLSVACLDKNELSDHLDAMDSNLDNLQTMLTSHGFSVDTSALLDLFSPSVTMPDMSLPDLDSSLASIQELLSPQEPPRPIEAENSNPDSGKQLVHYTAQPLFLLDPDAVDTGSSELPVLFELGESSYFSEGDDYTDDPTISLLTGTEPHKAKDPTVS

[10] = molecular target: Palmitoyl-protein thioesterase ABHD10, mitochondrial (Mus musculus, UniProt Q6PE15); test: Late stage assay provider results from the probe development effort to identify inhibitors of PME-1: fluorescence-based dose response biochemical gel-based competitive Activity-Based Protein Profiling (ABPP) inhibition of ABHD10 Set 1.; format: functional
Sequence of Palmitoyl-protein thioesterase ABHD10, mitochondrial (Q6PE15 whole entry): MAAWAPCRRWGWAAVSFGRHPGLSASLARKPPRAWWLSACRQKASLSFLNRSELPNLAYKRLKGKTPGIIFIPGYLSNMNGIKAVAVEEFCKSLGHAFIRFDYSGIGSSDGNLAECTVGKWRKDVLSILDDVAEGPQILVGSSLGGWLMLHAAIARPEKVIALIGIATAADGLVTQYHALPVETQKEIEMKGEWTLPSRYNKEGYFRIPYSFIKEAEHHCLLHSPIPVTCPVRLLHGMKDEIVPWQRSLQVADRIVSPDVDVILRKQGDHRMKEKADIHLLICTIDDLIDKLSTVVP

[11] = molecular target: T4, Microphthalmia-associated transcription factor (Homo sapiens, UniProt O75030); test: TRPM1 promoter luciferase signal decrease, dose response, MITF inhibitor project, cell-based, SK-MEL-5, cherry-picked, set 3 (AID 493073); format: functional
T4 sequence (O75030 whole entry): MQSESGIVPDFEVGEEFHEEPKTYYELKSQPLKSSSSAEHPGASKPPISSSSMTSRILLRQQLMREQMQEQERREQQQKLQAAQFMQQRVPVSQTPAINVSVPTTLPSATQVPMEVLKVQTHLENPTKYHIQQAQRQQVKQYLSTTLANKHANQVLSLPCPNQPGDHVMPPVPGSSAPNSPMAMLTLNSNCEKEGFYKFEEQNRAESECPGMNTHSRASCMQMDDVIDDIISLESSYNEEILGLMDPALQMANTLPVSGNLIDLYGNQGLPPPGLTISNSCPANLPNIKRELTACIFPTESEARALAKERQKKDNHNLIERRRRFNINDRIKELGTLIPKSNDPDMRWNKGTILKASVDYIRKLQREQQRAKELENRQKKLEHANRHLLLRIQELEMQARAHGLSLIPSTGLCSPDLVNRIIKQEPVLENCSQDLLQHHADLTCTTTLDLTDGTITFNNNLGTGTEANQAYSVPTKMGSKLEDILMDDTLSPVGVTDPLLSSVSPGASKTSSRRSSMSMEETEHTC

[12] = molecular target: T5, Corticotropin-releasing factor receptor 2/Corticotropin-releasing factor-binding protein (Homo sapiens, UniProt P24387+Q13324); test: activators of CRF receptor 2 with binding protein – uHTS hits, confirmation (AID 602473); format: functional; settings: read-out: EC50_Mean
T5 sequence (Q13324 whole entry): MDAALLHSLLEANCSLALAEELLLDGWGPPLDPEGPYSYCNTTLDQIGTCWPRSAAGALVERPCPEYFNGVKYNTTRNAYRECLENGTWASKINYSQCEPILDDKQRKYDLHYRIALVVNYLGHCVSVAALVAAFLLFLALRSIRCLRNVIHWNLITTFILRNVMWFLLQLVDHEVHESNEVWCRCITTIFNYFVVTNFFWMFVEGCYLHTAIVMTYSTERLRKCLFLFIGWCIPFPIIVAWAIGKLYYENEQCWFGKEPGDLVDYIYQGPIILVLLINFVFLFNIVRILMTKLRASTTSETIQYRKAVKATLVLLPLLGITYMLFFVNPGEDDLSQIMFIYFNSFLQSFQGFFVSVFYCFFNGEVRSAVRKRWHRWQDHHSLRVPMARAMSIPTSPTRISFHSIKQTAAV
T5 sequence (P24387 whole entry): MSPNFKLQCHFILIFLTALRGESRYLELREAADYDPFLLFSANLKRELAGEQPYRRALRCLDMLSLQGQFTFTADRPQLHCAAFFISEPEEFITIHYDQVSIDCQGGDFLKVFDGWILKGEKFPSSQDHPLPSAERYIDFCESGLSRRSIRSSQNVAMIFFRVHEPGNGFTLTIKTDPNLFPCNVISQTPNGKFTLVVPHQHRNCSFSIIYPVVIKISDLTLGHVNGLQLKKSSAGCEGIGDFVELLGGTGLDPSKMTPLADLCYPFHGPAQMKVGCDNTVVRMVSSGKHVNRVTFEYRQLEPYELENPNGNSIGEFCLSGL

[13] = CRF-BP/CRF-R2 complex antagonists, dose response, cell-based, uHTS hits, 384-well (AID 651639); format: functional, Homo sapiens; settings: read-out: IC50_Mean
[14] = molecular target: T5, Corticotropin-releasing factor receptor 2/Corticotropin-releasing factor-binding protein; test: Dose Response confirmation of uHTS hits for small molecule antagonists of the CRF-binding protein and CRF-R2 receptor complex.; format: functional; settings: read-out: IC50_Mean
[15] = molecular target: T6, Sentrin-specific protease 8 (Homo sapiens, UniProt Q96LD8); format: functional
T6 sequence (Q96LD8 whole entry): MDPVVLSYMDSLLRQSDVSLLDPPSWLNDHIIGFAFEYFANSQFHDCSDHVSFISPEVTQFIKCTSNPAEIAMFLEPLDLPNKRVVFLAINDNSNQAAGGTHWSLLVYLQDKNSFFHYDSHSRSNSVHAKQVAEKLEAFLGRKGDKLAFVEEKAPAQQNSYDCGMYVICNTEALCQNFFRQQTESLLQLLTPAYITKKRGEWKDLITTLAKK

Coagulation factor XII = molecular target: T7, Coagulation factor XII (Homo sapiens, UniProt P00748); format: functional;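 also: activated factor XIIa alpha cleaving a fluorogenic AMC peptide substrate; inhibitor potency from loss of enzyme activity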
T7 sequence (P00748 whole entry): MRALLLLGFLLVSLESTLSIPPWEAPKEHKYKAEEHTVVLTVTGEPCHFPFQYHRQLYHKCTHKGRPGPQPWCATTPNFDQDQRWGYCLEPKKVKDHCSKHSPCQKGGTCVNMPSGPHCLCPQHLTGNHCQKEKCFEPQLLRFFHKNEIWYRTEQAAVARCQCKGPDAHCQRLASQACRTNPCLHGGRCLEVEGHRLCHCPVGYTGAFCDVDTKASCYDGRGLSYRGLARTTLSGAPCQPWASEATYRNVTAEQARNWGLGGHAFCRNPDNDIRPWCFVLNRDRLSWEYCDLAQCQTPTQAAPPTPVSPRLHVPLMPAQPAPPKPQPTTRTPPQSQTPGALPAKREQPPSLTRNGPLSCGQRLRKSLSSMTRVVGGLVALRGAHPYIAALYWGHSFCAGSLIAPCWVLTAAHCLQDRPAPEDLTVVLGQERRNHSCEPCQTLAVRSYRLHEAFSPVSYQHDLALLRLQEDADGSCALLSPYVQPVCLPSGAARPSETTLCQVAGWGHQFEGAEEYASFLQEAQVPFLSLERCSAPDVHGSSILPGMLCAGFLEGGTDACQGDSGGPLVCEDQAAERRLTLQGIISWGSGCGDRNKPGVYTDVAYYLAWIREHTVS

[16] = molecular target: T6, Sentrin-specific protease 8; format: functional; remark: listed apart in the source
Caspase-3 = molecular target: T8, Caspase-3 (Homo sapiens, UniProt P42574); test: Dose-response confirmation of uHTS inhibitor hits of Sentrin-Specific Protease 8 in a Caspase-3 Fluorescence assay.; format: functional
T8 sequence (P42574 whole entry): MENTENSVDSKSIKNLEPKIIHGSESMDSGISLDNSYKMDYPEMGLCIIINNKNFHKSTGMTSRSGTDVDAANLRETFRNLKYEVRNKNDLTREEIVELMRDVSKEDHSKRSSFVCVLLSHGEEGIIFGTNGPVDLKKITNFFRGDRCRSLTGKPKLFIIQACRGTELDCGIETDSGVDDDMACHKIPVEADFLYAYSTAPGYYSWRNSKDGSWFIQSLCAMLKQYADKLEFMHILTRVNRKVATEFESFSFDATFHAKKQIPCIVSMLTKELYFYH

[17] = molecular target: Ras and Rab interactor 1/Tyrosine-protein kinase ABL1 (Homo sapiens, UniProt P00519+Q13671); format: functional;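 also: biochemical TR-FRET dose-response test measuring inhibition of binding between Rin1 and Abl proteins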
Genome polyprotein = Genome polyprotein (dengue virus type 2, UniProt P29990); test: Dengue-2 NS5 methyltransferase inhibitors, primary screen, biochemical, confirmation dose response (AID 588689); format: functional
Sequence of Genome polyprotein (P29990 2492-3391 limits assumed): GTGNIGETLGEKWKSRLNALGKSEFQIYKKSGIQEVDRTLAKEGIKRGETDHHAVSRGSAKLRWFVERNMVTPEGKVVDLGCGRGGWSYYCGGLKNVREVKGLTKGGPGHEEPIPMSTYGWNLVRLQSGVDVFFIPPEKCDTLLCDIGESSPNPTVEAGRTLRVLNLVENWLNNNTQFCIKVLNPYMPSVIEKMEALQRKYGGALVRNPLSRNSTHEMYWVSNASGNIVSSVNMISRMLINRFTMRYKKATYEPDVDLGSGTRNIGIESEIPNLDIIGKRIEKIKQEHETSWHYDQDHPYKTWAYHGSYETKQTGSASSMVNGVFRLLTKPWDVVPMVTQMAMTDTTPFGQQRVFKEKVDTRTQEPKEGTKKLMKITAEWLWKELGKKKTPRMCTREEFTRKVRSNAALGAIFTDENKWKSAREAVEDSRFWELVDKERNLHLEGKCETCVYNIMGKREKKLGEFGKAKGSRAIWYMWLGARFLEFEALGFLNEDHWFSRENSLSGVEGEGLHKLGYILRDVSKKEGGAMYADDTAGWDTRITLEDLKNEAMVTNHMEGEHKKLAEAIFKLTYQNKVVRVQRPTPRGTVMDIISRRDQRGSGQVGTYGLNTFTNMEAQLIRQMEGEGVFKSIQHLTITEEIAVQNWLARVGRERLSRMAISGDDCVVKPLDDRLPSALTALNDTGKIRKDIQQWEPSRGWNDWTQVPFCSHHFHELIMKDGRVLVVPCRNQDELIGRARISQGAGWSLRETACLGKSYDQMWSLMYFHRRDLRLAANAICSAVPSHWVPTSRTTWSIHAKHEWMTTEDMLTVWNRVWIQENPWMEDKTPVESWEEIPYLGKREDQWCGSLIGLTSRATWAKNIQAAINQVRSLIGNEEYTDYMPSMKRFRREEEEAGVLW

Vero [18] = test: Vero cell cytotoxicity, cytotoxicity control for flavivirus capping enzyme inhibitors (AID 588742); format: functional; settings: Chlorocebus sabaeus
INS1 = test: beta cell apoptosis inhibitors, cytokine rescue, dose response, luminescence, retest (AID 449756); format: functional, cell-based; settings: Rattus norvegicus;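 also: cell death triggered by IL-1 beta plus TNF-alpha plus IFN-gamma mixture; protective hits raise ATP signal compared with cytokine alone wells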
[19] = molecular target: T3, Heat shock factor protein 1; test: HSF1 potentiators in luciferase reporter cells, confirmation, cell-based, NIH3T3, luminescence, dose retest (AID 435004); format: functional;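 also: stress induced by proteasome inhibitor MG132 added 30 min after compound; luciferase reporter driven by HSF1 response element in NIH3T3 cells; actives raise luminescence as potentiators of the MG132 stress response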
[20] = molecular target: Mitochondrial peptide methionine sulfoxide reductase (Bos taurus, UniProt P54149); test: Absorbance-based biochemical high throughput dose response assay for activators of Methionine sulfoxide reductase A (MsrA).; format: functional
Sequence of Mitochondrial peptide methionine sulfoxide reductase (P54149 whole entry): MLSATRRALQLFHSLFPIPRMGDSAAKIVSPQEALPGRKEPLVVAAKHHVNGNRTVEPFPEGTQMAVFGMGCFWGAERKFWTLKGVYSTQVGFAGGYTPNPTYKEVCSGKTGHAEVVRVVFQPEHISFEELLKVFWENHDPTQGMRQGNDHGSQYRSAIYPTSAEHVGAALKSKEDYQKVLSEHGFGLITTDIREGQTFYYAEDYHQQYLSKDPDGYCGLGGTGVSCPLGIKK

Protein Wnt-3a = Protein Wnt-3a (Mus musculus, UniProt P27467); test: Wnt3a-driven reporter signaling inhibition, dose response, selectivity assay for Gli-SUFU antagonist project, Wnt-LIGHT cells, luminescence (AID 651570); format: functional; settings: read-out: IC50_Mean;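 also: Wnt-LIGHT reporter cells stimulated with conditioned medium from Wnt3a-producing cells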
Sequence of Protein Wnt-3a (P27467 whole entry): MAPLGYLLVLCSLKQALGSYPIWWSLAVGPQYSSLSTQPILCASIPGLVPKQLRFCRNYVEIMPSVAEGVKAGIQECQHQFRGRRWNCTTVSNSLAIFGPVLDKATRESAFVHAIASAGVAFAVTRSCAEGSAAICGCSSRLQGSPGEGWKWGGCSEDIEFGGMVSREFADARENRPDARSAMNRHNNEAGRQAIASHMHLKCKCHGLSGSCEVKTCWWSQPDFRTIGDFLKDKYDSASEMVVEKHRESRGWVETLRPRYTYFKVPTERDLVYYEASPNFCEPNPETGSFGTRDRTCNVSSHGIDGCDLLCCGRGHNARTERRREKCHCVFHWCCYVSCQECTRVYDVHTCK

Vero [21] = test: Vero cell toxicity, dose response, cytotoxicity control, plate reader, cherry-pick samples (AID 687020); format: functional, cell-based; settings: Chlorocebus sabaeus
[22] = molecular target: T9, ATP-dependent translocase ABCB1 (Homo sapiens, UniProt P08183); test: ABCG2 efflux pump inhibitor potency, dose response, Ig-MXP3 cells, JC-1, flow cytometry, set 2 (AID 504566); format: functional; settings: read-out: EC50_MICROM_;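 also: flow cytometry median green fluorescence of retained JC-1 dye; potency of efflux pump inhibition measured as rising substrate retention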
T9 sequence (P08183 whole entry): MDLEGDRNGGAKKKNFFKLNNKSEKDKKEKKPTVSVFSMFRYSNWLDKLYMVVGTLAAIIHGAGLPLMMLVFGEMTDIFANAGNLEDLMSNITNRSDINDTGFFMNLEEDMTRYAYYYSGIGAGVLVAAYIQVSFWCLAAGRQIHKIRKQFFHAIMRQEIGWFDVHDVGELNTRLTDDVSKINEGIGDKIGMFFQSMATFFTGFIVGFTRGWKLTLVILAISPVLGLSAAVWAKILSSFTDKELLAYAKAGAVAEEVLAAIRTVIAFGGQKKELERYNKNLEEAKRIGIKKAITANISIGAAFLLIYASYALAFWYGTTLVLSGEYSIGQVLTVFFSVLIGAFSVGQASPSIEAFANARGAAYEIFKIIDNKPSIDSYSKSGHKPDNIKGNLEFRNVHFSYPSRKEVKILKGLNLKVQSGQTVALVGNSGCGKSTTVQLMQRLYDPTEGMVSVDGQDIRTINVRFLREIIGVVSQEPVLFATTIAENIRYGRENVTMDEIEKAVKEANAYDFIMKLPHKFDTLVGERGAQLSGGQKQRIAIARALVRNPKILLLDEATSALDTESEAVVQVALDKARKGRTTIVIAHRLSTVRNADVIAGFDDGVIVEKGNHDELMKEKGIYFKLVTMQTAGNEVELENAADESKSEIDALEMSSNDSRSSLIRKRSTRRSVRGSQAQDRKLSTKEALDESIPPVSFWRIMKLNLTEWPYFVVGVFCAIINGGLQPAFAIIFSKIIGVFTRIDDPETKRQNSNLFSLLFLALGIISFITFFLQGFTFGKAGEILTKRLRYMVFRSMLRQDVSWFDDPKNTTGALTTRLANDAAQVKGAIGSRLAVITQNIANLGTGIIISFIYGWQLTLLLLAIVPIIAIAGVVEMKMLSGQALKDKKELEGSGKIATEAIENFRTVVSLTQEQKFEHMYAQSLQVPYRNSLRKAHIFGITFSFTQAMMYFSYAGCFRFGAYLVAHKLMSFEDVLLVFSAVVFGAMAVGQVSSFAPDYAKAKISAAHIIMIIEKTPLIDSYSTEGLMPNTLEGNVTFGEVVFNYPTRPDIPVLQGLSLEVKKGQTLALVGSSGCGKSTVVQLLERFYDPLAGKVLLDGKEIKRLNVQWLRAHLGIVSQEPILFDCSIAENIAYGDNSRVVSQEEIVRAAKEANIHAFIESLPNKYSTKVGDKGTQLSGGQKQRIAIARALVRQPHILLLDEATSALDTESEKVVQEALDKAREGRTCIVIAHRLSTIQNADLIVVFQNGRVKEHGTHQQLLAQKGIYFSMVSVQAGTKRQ

[23] = molecular target: T9, ATP-dependent translocase ABCB1; test: ABCB1 efflux inhibitor potency, dose response, Jurkat-DNR cells, JC-1, flow cytometry, set 2 (AID 504569); format: functional; settings: read-out: EC50_MICROM_;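 also: potency of pump inhibitors that raise cellular JC-1 green fluorescence up to the nicardipine level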
[24] = ARNT/TACC3 interaction disruptors, potency, confirmation, biochemical, AlphaScreen, cherry-picked samples (AID 651703); format: functional, Homo sapiens;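 also: His-tagged ARNT PAS-B domain paired with GST-TACC3 E629A dimer coactivator fragment; potency of inhibitors that break up the complex and lower AlphaScreen signal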

For `COC(=O)c1cc(=O)n(Cc2ccco2)/c(=N/c2ccc(F)cc2)s1`, the IC50 [1] was 5.67 µM (active).

With `COc1ccc(N2CCC(CNC(=O)Nc3ccc(Cl)cc3)C2)cc1` (stereo not given) the IC50 [2] was > 54 µM (not active), the IC50 [3] was 27.3 µM (inactive) and the IC50 [4] was 38.4 µM (inactive). For the same compound, the IC50 [5] was 83.3 µM (inactive).

With `COc1cccc(-c2nc(CS(=O)(=O)CC(=O)NC3CCCc4ccccc43)c(C)o2)c1` (stereo not given) the IC50 [6] was 0.869 µM (active).

With `O=C(Nc1cnc(O)nc1O)c1cc([N+](=O)[O-])cc([N+](=O)[O-])c1` the EC50 [7] was 3.9 µM (active) and the EC50 [8] was 2.7 µM (active).

With `CCOC(=O)N1C(=O)[C@@](CC)(c2ccccc2)N1C(=O)OCC` the EC50 [9] was > 195 µM (not active), the IC50 [10] was 0.173 µM (active) and the AC50 [11] was 12.5 µM (active).

With `CC1(C)C2CC=C(/C=N/NC(=O)c3ccccc3O)C1C2` (stereo not given) the EC50 [12] was 31.1 µM (active), the IC50 [13] was > 20 µM (inactive) and the IC50 [14] was 5.3 µM (active).

For `COc1ccc(N2C(=O)[C@@H]3[C@H](C2=O)[C@H]2c4ccccc4C=CN2[C@@H]3C(=O)Nc2ccccc2)cc1`, the IC50 [15] was 3.72 µM (active), the IC50 (Coagulation factor XII) was > 50 µM (inactive) and the IC50 [16] was 16.7 µM (active). The IC50 (Caspase-3) was 12.4 µM (active).

In the case of `CCOc1c(Cl)cc(C(=O)Nc2ccccc2C(=O)O)cc1Cl`, the IC50 [17] is reported as 26.8 µM (inactive), the IC50 (Genome polyprotein) is reported as 52 µM (active) and the CC50 (Vero [18]) is reported as > 40 µM (active).

With `Nc1nc2ccccc2n1/N=C/c1ccc([N+](=O)[O-])s1` the AC50 (INS1) was 4.11 µM (active), the EC50 [19] was 4.39 µM (active) and the EC50 [20] was > 104 µM (inactive). The IC50 (Protein Wnt-3a) was 15.3 µM (active) and the AC50 [11] was 2.81 µM (active).

With `Cc1cccc(N(C(=O)Cn2nnc3ccccc32)C(C(=O)NC(C)(C)C)c2ccsc2)c1` (stereo not given) the AC50 (Vero [21]) was 31.3 µM (active).

With `Cc1cccc(-c2nc3nc(C)cc(N4CCN(C(=O)c5ccco5)CC4)n3n2)c1` the EC50 [22] was 6 µM (active) and the EC50 [23] was 14.6 µM (active).

In the case of `COc1cccc(CNC(=O)COC(=O)c2ccc(C(=O)c3ccccc3)cc2)c1`, the AC50 [24] is reported as 79.3 µM (active).
